Measurements published in patent publication US11440923B2, “Substituted macrocyclic indole derivatives” (Bayer Aktiengesellschaft, priority 2017, dated 2022).
pIC50: −log10 of the molar value. Where a name gives a salt, the structure may show the parent alone. Read-outs that look alike come from different tables or passages of the source. Values belong to the molecule of their own block, whether it stands above or below them.

Key:
Format in all cases: cell-based
A2780 cells = test: Antiproliferation assay A2780 (Assay 7)
Protocol: (§1) Assessment of the Anti-Proliferative Effect of Compounds in Different Cell Lines
(§2) The impact of compounds on the proliferation of different cell lines was assessed using the CellTiter-Glo® Luminescent Cell Viability reagent from Promega (G7573).
(§3) In parallel, cells were plated in a reference (day 0) plate for time zero determination. Cells were incubated in a humidified incubator at 37° C. overnight.
(§4) Rim wells were excluded. The cells were incubated for 72 h hours in a humidified incubator at 37° C. The day 0 plate was measured by adding 30 μL/well of CTG solution (CellTiter-Glo® Luminescent Cell Viability reagent, Promega G7573) to time zero wells in the reference plate followed by a 10 minutes incubation and luminescence reading at 0.1 ms. using the PHERAstar FS microplate reader (BMG Labtech).
(§5) After 72 h incubation, the treated plates were measured in the same way as the day 0 plate mentioned above. The Bella DRC Master Sheet was used to calculate IC50s, with CI=day 0 values and C0=DMSO control values.

SUDHL10 cells = test: Antiproliferation assay SUDHL10 (Assay 7); settings: 72 h, CellTiter-Glo, read-out: Antiproli SUDHL10 IC50 (median)
Protocol: as §1, §2, §3, §4, §5

SNU-16 cells = test: Antiproliferation assay SNU-16 (Assay 7); settings: Homo sapiens, read-out: Antiproli SNU-16 IC50 median
In short: (§6)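 IC50 values reflect growth relative to a day 0 baseline (CI) and DMSO vehicle (C0). Viable cells were quantified by CellTiter-Glo luminescence after 72 h treatment at 37 °C.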

PA-1 cells = test: Antiproliferation assay PA-1 (Assay 7); settings: Homo sapiens, read-out: Antiproli PA-1 IC50 median
In short: as §6

SK-BR-3 cells = test: Antiproliferation assay SK-BR-3 (Assay 7); settings: Homo sapiens, read-out: Antiproli SK-BR-3 IC50 median
Protocol: as §1, §2, §3, §4, §5

[1] = Homo sapiens, A2780, 72 h, CellTiter-Glo, read-out: Antiproli A2780 IC50 median
[2] = Homo sapiens, A2780, 72 h, read-out: Antiproli A2780 IC50 median, 72 h, CellTiter-Glo

Structure (SMILES): CCc1c2c(nn1C)C(CCN1CCOCC1)OCCCCn1c(C(=O)O)c(CCCOc3cccc4ccccc34)c3ccc(F)c-2c31 (racemic) [Example 10, (rac)-3-ethyl-4-fluoro-2-methyl-15-[2-(morpholin-4-yl)ethyl]-7-[3-(naphthalen-1-yloxy)propyl]-2,10,11,12,13,15-hexahydropyrazolo[4′,3′:9,10][1,6]oxazacycloundecino[8,7,6-hi]indole-8-carboxylic Acid]
pIC50 (A2780 cells; [1]): 5.46
pIC50 (SUDHL10 cells; Homo sapiens, SU-DHL10): 6.85

Structure (SMILES): Cc1c2c(nn1C)C(CCN1CCOCC1)OCCCCn1c(C(=O)O)c(CCCOc3cccc4cc(F)ccc34)c3ccc(F)c-2c31 (single isomer, unassigned; enantiomer 1) [Example 20, 4-fluoro-7-{3-[(6-fluoronaphthalen-1-yl)oxy]propyl}-2,3-dimethyl-15-[2-(morpholin-4-yl)ethyl]-2,10,11,12,13,15-hexahydropyrazolo[4′,3′:9,10][1,6]oxazacycloundecino[8,7,6-hi]indole-8-carboxylic Acid—N-ethylethanamine (Enantiomer 1)]
pIC50 (SNU-16 cells; SNU-16, 72 h): 6.40
pIC50 (SK-BR-3 cells; SK-BR-3, 72 h): 6.76
pIC50 (PA-1 cells; PA-1, 72 h): 6.52

Structure (SMILES): Cc1c2c(nn1C)C(C)OCCCCn1c(C(=O)O)c(CCCOc3cccc4ccccc34)c3cccc-2c31 (racemic) [Example 1, (rac)-2,3,15-trimethyl-7-[3-(naphthalen-1-yloxy)propyl]-2,10,11,12,13,15-hexahydropyrazolo[4′,3′:9,10][1,6]oxazacycloundecino[8,7,6-hi]indole-8-carboxylic Acid (Mixture of Stereoisomers)]
pIC50 (A2780 cells; [1]): 4.71
pIC50 (SUDHL10 cells; Homo sapiens, SU-DHL10): 5.15

Structure (SMILES): Cc1c2c(nn1C)C(C)OCCCCn1c(C(=O)O)c(CCCOc3cccc4ccccc34)c3cccc-2c31 (single isomer, unassigned; stereoisomer 1) [Example 2, 2,3,15-trimethyl-7-[3-(naphthalen-1-yloxy)propyl]-2,10,11,12,13,15-hexahydropyrazolo[4′,3′:9,10][1,6]oxazacycloundecino[8,7,6-hi]indole-8-carboxylic Acid Trifluoroacetic Acid Salt (Stereoisomer 1)]
pIC50 (A2780 cells; read-out: Antiproli A2780 IC50 median, 72 h, CellTiter-Glo, listed as 02): 4.64
pIC50 (SUDHL10 cells): 5.54

Structure (SMILES): CCc1c2c(nn1C)C(CCN1CCOCC1)OCCCCn1c(C(=O)O)c(CCCOc3cccc4ccccc34)c3ccc(F)c-2c31 (single isomer, unassigned; enantiomer 1) [Example 11, 3-ethyl-4-fluoro-2-methyl-15-[2-(morpholin-4-yl)ethyl]-7-{3-[(naphthalen-1-yl)oxy]propyl}-2,10,11,12,13,15-hexahydropyrazolo[4′,3′:9,10][1,6]oxazacycloundecino[8,7,6-hi]indole-8-carboxylic Acid—N-ethylethanamine Salt (Enantiomer 1)]
pIC50 (A2780 cells; [2]): 6.11

Structure (SMILES): CCc1c2c(nn1C)C(CCC1CCOCC1)OCCCCn1c(C(=O)O)c(CCCOc3cccc4cc(F)ccc34)c3ccc(Cl)c-2c31 (single isomer, unassigned; enantiomer 1) [Example 63, (+)-4-chloro-3-ethyl-7-{3-[(6-fluoronaphthalen-1-yl)oxy]propyl}-2-methyl-15-[2-(oxan-4-yl)ethyl]-2,10,11,12,13,15-hexahydropyrazolo[4′,3′:9,10][1,6]oxazacycloundecino[8,7,6-hi]indole-8-carboxylic Acid—N-ethylethanamine Salt (Enantiomer 1)]
pIC50 (SNU-16 cells; SNU-16, 72 h): 6.56
pIC50 (PA-1 cells; PA-1, 72 h): 6.69

Structure (SMILES): Cc1c2c(nn1C)C(CCN1CCOCC1)OCCCCn1c(C(=O)O)c(CCCOc3cccc4cc(F)ccc34)c3ccc(Cl)c-2c31 (racemic) [Example 16, (rac)-4-chloro-7-{3-[(6-fluoronaphthalen-1-yl)oxy]propyl}-2,3-dimethyl-15-[2-(morpholin-4-yl)ethyl]-2,10,11,12,13,15-hexahydropyrazolo[4′,3′:9,10][1,6]oxazacycloundecino[8,7,6-hi]indole-8-carboxylic Acid]
pIC50 (SK-BR-3 cells; SK-BR-3, 72 h, CellTiter-Glo): 6.97

More lines, main results first:

pIC50 (SNU-16 cells; SNU-16, 72 h, CellTiter-Glo): 6.49
Structure (SMILES): CCc1c2c(nn1C)C(CCN1CCOCC1)OCCCCn1c(C(=O)O)c(CCCOc3cccc4cc(F)ccc34)c3ccc(F)c-2c31 (single isomer, unassigned; enantiomer 1) [Example 50, (+)-3-ethyl-4-fluoro-7-{3-[(6-fluoronaphthalen-1-yl)oxy]propyl}-2-methyl-15-[2-(morpholin-4-yl)ethyl]-2,10,11,12,13,15-hexahydropyrazolo[4′,3′:9,10][1,6]oxazacycloundecino[8,7,6-hi]indole-8-carboxylic Acid (Enantiomer 1)]
pIC50 (PA-1 cells; PA-1, 72 h, CellTiter-Glo): 6.65

pIC50 (SNU-16 cells; SNU-16, 72 h, CellTiter-Glo): 6.82
Structure (SMILES): CCc1c2c(nn1C)C(CCC(C)(C)O)OCCCCn1c(C(=O)O)c(CCCOc3cccc4cc(F)ccc34)c3ccc(Cl)c-2c31 (single isomer, unassigned; enantiomer 1) [Example 75, (+)-4-chloro-3-ethyl-7-{3-[(6-fluoronaphthalen-1-yl)oxy]propyl}-15-(3-hydroxy-3-methylbutyl)-2-methyl-2,10,11,12,13,15-hexahydropyrazolo[4′,3′:9,10][1,6]oxazacycloundecino[8,7,6-hi]indole-8-carboxylic Acid—N-ethylethanamine Salt (Enantiomer 1)]
pIC50 (PA-1 cells; PA-1, 72 h, CellTiter-Glo): 6.93

pIC50 (SUDHL10 cells; Homo sapiens, SU-DHL10): 6.80
Structure (SMILES): Cc1c2c(nn1C)C(CCN1CCOCC1)OCCCCn1c(C(=O)O)c(CCCOc3cccc4ccccc34)c3ccc(F)c-2c31 (racemic) [Example 7, (rac)-4-fluoro-2,3-dimethyl-15-[2-(morpholin-4-yl)ethyl]-7-[3-(naphthalen-1-yloxy)propyl]-2,10,11,12,13,15-hexahydropyrazolo[4′,3′:9,10][1,6]oxazacycloundecino[8,7,6-hi]indole-8-carboxylic Acid]

pIC50 (A2780 cells; [2]): 4.52
pIC50 (SUDHL10 cells): 5.15
Structure (SMILES): Cc1c2c(nn1C)C(C)OCCCCn1c(C(=O)O)c(CCCOc3cccc4ccccc34)c3cccc-2c31 (single isomer, unassigned; stereoisomer 2) [Example 3, 2,3,15-trimethyl-7-[3-(naphthalen-1-yloxy)propyl]-2,10,11,12,13,15-hexahydropyrazolo[4′,3′:9,10][1,6]oxazacycloundecino[8,7,6-hi]indole-8-carboxylic Acid Trifluoroacetic Acid Salt (Stereoisomer 2)]

pIC50 (SNU-16 cells; SNU-16, 72 h, CellTiter-Glo): 6.89
Structure (SMILES): CCc1c2c(nn1C)C(CCN1CC(F)(F)C1)OCCCCn1c(C(=O)O)c(CCCOc3cccc4cc(F)ccc34)c3ccc(Cl)c-2c31 (single isomer, unassigned; (+)) [Example 78, (+)-4-chloro-15-[2-(3,3-difluoroazetidin-1-yl)ethyl]-3-ethyl-7-{3-[(6-fluoronaphthalen-1-yl)oxy]propyl}-2-methyl-2,10,11,12,13,15-hexahydropyrazolo[4′,3′:9,10][1,6]oxazacycloundecino[8,7,6-hi]indole-8-carboxylic Acid—N-ethylethanamine Salt]
pIC50 (PA-1 cells; PA-1, 72 h, CellTiter-Glo): 6.90
